Experimental data published in ChEMBL document CHEMBL1135559, “Vacuolar-type H(+)-ATPase inhibitory activity of synthetic analogues of the concanamycins: is the hydrogen bond network involving the lactone carbonyl, the hemiacetal hydroxy group, and the C-19 hydroxy group essential for the biological activity of the concanamycins?” (Bioorg Med Chem Lett, 2002).

Key:
Assay type in all cases: functional, cell-based
Settings in all cases: Homo sapiens
A-431 [1] = test: Cell viability in A431 cells when stimulated with EGF was tested when incubated with concentration up to 10 uM after 48 h; Did not affect the viability
A-431 [2] = test: Cell viability in A431 cells unstimulated with EGF was tested when incubated with concentration up to 10 uM after 48 h; Did not affect the viability
A-431 [3] = test: Cell viability in A431 cells unstimulated with EGF was tested when incubated with concentration in the range of 1-10 uM after 48 h; Did not affect the viability
A-431 [4] = test: Cell viability in A431 cells when stimulated with EGF was tested when incubated with concentration in the range of 1-10 uM of the compound after 48 h; Cell death
A-431 [5] = test: Cell viability in A431 cells unstimulated with EGF was tested when incubated with concentration at 2 uM after 48 h; Did not affect the viability
A-431 [6] = test: Cell viability in A431 cells when stimulated with EGF was tested when incubated with concentration 2 uM after 48 h; Cell death
A-431 [7] = test: Cell viability in A431 cells when stimulated with EGF was tested when incubated with concentration 0.01 uM after 48 h; Cell death

For CC[C@H]1[C@@H](O)[C@H](C)C/C(C)=C/C=C/[C@H](OC)[C@@H]([C@@H](C)COC(c2ccccc2)(c2ccccc2)c2ccc(OC)cc2)OC(=O)/C(OC)=C/C(C)=C/[C@@H](C)[C@H]1O, the Activity (A-431 [1]) was “No effect” and the Activity (A-431 [2]) was “No effect”.
In the case of CC[C@H]1[C@@H](O)[C@H](C)C/C(C)=C/C=C/[C@H](OC)[C@@H]([C@@H](C)CO)OC(=O)/C(OC)=C/C(C)=C/[C@@H](C)[C@H]1O, the Activity (A-431 [3]) is reported as “No effect” and the Activity (A-431 [4]) is reported as “No effect”.
C/C=C/[C@H]1O[C@@](O)([C@@H](C)[C@H](O)[C@H](C)[C@H]2OC(=O)/C(OC)=C/C(C)=C/[C@@H](C)[C@@H](O)[C@@H](CC)[C@@H](O)[C@H](C)C/C(C)=C/C=C/[C@@H]2OC)C[C@@H](O)[C@@H]1C was tested, and the Activity (A-431 [5]) was “No effect” and the Activity (A-431 [6]) was “No effect”.
In the case of CC[C@@H]([C@@H](O)[C@H](C)C/C(C)=C/C=C/[C@H](OC)[C@H](O)[C@@H](C)COC(c1ccccc1)(c1ccccc1)c1ccc(OC)cc1)[C@H](O)[C@H](C)/C=C(C)/C=C(\OC)C(=O)OC, the Activity (A-431 [7]) is reported as “No effect” and the Activity (A-431 [2]) is reported as “No effect”.
